According to patent publication US12298319B2, “Method for measuring alpha value of muscarinic M1 receptor positive allosteric modulators” (Takeda Pharmaceutical Company Limited, priority 2017, dated 2025):
Where two headings read alike, the source gives them in different places.

Tests used:
[1] = test system: IP1 production in the hippocampus; test: In vivo IP1 assay, hippocampus of wild-type and M1R KO mice; set-up: species or system mouse
Text: Hippocampus was isolated from the brain.

[2] = Plasma and brain concentration in samples of in vivo IP1 assay; set-up: species or system mouse; settings: for concentration at 3 h: mouse, oral, mean±SD
Experimental: Plasma and brain concentration of Compound D in sample of in vivo IP1 assay at 3 h after oral treatment. Results represent the mean±SD. n=10 per group.
Plasma and brain concentration of Compound C in sample of in vivo IP1 assay at 3 h after oral treatment. Results represent the mean±SD. n=10 per group.

[3] = test system: rats; test: Assessment of cholinergic side effects in rats; settings: SD, rat, in vivo, po, 240 min
Experimental: SD Rats were placed individually into observation cages and acclimated for at least 1 h. […] The severity of diarrhea was scored as follows: 0, normal pellets; 1, wet but formed feces; 2, swollen or mucous feces; 3, severe watery diarrhea. For diarrhea, the number of rats and mice, in which more than or equal to 2 was scored, was counted. For fasciculation, the number of rats with marked fasciculation of both the upper and lower limbs was counted. For lacrimation, the number of rats, in which moderate to marked discharge (severer lacrimation than fluid around eyes) was induced, was counted. For salivation, the number of rats with severe salivation, but not just noticeably wet around mouth, was induced was counted. The maximum score during the observation was adopted.
(§1) For diarrhea, the number of rats scored more than or equal to 2 was counted. For fasciculation, the number of rats with marked fasciculation of both the upper and lower limbs was counted. For lacrimation, the number of rats in which moderate to marked discharge (severer lacrimation than fluid around eyes) was counted. For salivation, the number of rats with severe salivation, but not just noticeably wet around mouth, was counted. The maximum score during the observation was adopted. Data were presented as the number of incidence per total rats.
as §1, with “in which loose” for “scored more than”, “mucous stool, or diarrhea was induced” for “equal to 2”, “(severe” for “(severer”, “eyes) was caused” for “eyes)”, “mouth” for “mouth,”

[4] = biological target: T1, M2R (Homo sapiens, UniProt P08172); test: Ca2+ flux assay in CHO-K1 cells expressing human M2R; type: cell-based; set-up: expressed in transfected cells; host or cells: CHO-K1; settings: read-out: IP for M2R
T1 sequence (P08172 1-466): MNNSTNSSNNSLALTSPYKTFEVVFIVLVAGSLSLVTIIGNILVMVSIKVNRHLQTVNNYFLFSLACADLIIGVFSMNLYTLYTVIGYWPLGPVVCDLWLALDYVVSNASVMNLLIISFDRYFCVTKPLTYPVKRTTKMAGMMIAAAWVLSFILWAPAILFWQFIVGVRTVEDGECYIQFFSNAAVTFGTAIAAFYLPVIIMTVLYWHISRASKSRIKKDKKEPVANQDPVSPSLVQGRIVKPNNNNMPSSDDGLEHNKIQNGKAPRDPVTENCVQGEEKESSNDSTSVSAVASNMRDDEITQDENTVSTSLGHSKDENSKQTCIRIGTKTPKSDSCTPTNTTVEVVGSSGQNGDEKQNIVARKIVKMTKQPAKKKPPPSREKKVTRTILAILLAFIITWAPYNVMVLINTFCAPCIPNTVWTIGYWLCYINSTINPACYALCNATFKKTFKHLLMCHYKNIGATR

[5] = biological target: M3R (Homo sapiens, UniProt P20309); test: Ca2+ flux assay in CHO-K1 cells expressing human M3R; type: cell-based; set-up: expressed in transfected cells; host or cells: CHO-K1; settings: read-out: IP for M3R
Chain of M3R (P20309 whole entry): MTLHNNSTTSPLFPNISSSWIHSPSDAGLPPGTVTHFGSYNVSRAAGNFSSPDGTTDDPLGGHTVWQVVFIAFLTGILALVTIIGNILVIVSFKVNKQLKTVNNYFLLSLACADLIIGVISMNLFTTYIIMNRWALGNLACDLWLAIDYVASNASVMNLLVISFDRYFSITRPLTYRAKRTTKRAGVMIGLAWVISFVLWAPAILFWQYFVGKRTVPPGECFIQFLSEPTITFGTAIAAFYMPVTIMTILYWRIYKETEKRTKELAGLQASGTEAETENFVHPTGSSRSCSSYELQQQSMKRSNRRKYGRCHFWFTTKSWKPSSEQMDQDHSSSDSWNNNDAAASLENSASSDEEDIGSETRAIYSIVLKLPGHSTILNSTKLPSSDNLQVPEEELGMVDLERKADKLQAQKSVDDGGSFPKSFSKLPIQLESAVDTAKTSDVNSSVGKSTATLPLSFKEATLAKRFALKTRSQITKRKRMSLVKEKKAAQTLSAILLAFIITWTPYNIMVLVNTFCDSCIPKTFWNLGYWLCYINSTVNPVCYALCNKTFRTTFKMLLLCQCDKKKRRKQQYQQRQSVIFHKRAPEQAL

For `Cc1c(Cc2ccc(-n3cccn3)cc2)cc2c(c1F)CN([C@H]1COCC[C@@H]1O)C2=O` [Compound D, 4-fluoro-2-[(3S,4S)-4-hydroxytetrahydro-2H-pyran-3-yl]-5-methyl-6-[4-(1H-pyrazol-1-yl)benzyl]-2,3-dihydro-1H-isoindol-1-one], the “IP1 production in the hippocampus” value ([1]; M1R KO mice, 3 mg/kg p.o.) was “did not induce IP1 production”, the “IP1 production in the hippocampus” value ([1]; wild-type mice, 3 mg/kg p.o., 3 h, % of vehicle-treated control) was 153.3±9.3% and the “differences in PK profile between wild-type and M1R KO mice” value ([2]; 3 mg/kg p.o.) was “No significant differences”. It also gave a concentration at 3 h ([2]; brain, 3 mg/kg, 3 mg/kg p.o., M1KO mice, read-out: Brain concentration) of 370 ± 50 ng/g, a concentration at 3 h ([2]; brain, 3 mg/kg, 3 mg/kg p.o., wild-type mice, read-out: Brain concentration) of 350 ± 80 ng/g and a concentration at 3 h ([2]; plasma, 3 mg/kg, 3 mg/kg p.o., M1KO mice, read-out: Plasma concentration) of 3260 ± 260 ng/mL. For the same molecule, the concentration at 3 h ([2]; plasma, 3 mg/kg, 3 mg/kg p.o., wild-type mice, read-out: Plasma concentration) was 3110 ± 490 ng/mL, the Diarrhea ([3]; 1 mg/kg) was 0/6 (0%) and the Fasciculation ([3]; 1 mg/kg) was 0/6 (0%). For the same molecule, the Lacrimation ([3]; 1 mg/kg) was 0/6 (0%), the Myosis ([3]; 1 mg/kg) was 0/6 (0%) and the Salivation ([3]; 1 mg/kg) was 0/6 (0%). For the same molecule, the Diarrhea ([3]; 3 mg/kg) was 1/6 (17%), the Fasciculation ([3]; 3 mg/kg) was 0/6 (0%) and the Lacrimation ([3]; 3 mg/kg) was 0/6 (0%). The Myosis ([3]; 3 mg/kg) was 0/6 (0%), the Salivation ([3]; 3 mg/kg) was 0/6 (0%) and the Diarrhea ([3]; 10 mg/kg) was 5/6 (83%). For the same molecule, the Fasciculation ([3]; 10 mg/kg) was 0/6 (0%), the Lacrimation ([3]; 10 mg/kg) was 0/6 (0%) and the Myosis ([3]; 10 mg/kg) was 0/6 (0%). For the same molecule, the Salivation ([3]; 10 mg/kg) was 0/6 (0%), the Diarrhea ([3]; 30 mg/kg) was 4/6 (67%) and the Fasciculation ([3]; 30 mg/kg) was 0/6 (0%). The Lacrimation ([3]; 30 mg/kg) was 0/6 (0%), the Myosis ([3]; 30 mg/kg) was 0/6 (0%) and the Salivation ([3]; 30 mg/kg) was 0/6 (0%). For the same molecule, the “minimal diarrhea inducing dose in rats” value [3] was 10 mg/kg, the EC50 [4] was over 10 µM and the EC50 [5] was over 10 µM.
In the case of `Cn1cc(-c2ccc(Cc3cc4c(=O)n([C@H]5CCCC[C@@H]5O)cnc4c4ccccc34)cn2)cn1` [Compound C, 3-((1S,2S)-2-hydroxycyclohexyl)-6-((6-(1-methyl-1H-pyrazol-4-yl)pyridin-3-yl)methyl)benzo[h]quinazoline-4(3H)-one, reference compound], the “IP1 production in the hippocampus” value ([1]; M1R KO mice, 10 mg/kg p.o.) is reported as “not in M1R KO mice”, the “IP1 production in the hippocampus” value ([1]; wild-type mice, 10 mg/kg p.o.) is reported as “significantly induced IP1 production” and the “differences in brain concentration between wild-type and M1R KO mice” value ([2]; 10 mg/kg p.o.) is reported as “No significant differences”. It also gave a concentration at 3 h ([2]; brain, 10 mg/kg, 10 mg/kg p.o., M1KO mice, read-out: Brain concentration) of 62.7 ± 9.1 ng/g, a concentration at 3 h ([2]; brain, 10 mg/kg, 10 mg/kg p.o., wild-type mice, read-out: Brain concentration) of 63.7 ± 16.8 ng/g and a concentration at 3 h ([2]; plasma, 10 mg/kg, 10 mg/kg p.o., M1KO mice, read-out: Plasma concentration) of 6130 ± 1160 ng/mL. The concentration at 3 h ([2]; plasma, 10 mg/kg, 10 mg/kg p.o., wild-type mice, read-out: Plasma concentration) was 2340 ± 628 ng/mL, the Diarrhea ([3]; 0.01 mg/kg) was 0/6 (0%) and the Fasciculation ([3]; 0.01 mg/kg) was 0/6 (0%). The Lacrimation ([3]; 0.01 mg/kg) was 0/6 (0%), the Myosis ([3]; 0.01 mg/kg) was 0/6 (0%) and the Salivation ([3]; 0.01 mg/kg) was 0/6 (0%). For the same molecule, the Diarrhea ([3]; 0.03 mg/kg) was 0/6 (0%), the Fasciculation ([3]; 0.03 mg/kg) was 0/6 (0%) and the Lacrimation ([3]; 0.03 mg/kg) was 0/6 (0%). The Myosis ([3]; 0.03 mg/kg) was 0/6 (0%), the Salivation ([3]; 0.03 mg/kg) was 0/6 (0%) and the Diarrhea ([3]; 0.1 mg/kg) was 3/6 (50%). The Fasciculation ([3]; 0.1 mg/kg) was 0/6 (0%), the Lacrimation ([3]; 0.1 mg/kg) was 0/6 (0%) and the Myosis ([3]; 0.1 mg/kg) was 0/6 (0%). The Salivation ([3]; 0.1 mg/kg) was 0/6 (0%), the Diarrhea ([3]; 0.3 mg/kg) was 4/6 (67%) and the Fasciculation ([3]; 0.3 mg/kg) was 0/6 (0%). The Lacrimation ([3]; 0.3 mg/kg) was 0/6 (0%), the Myosis ([3]; 0.3 mg/kg) was 0/6 (0%) and the Salivation ([3]; 0.3 mg/kg) was 0/6 (0%). The “minimal diarrhea inducing dose in rats” value [3] was 0.1 mg/kg, the EC50 [4] was over 1 µM and the EC50 [5] was over 1 µM.
